The source made the active and inactive calls. The rule behind the calls is not given here.

The values below come from ChEMBL document CHEMBL5038589, “Design, Synthesis, and Structure-Activity Relationship of N-Aryl-N'-(thiophen-2-yl)thiourea Derivatives as Novel and Specific Human TLR1/2 Agonists for Potential Cancer Immunotherapy” (J Med Chem, 2021).

The subject of data set [1] is HCT-116. Put plainly: Induction of apoptosis in human HCT-116 cells cocultured with PMA-differentiated THP-1 cells assessed as early apoptotic cells at 10 uM measured after 24 hrs using annexin V-FITC/PI staining based flow cytometry. It counts as functional. Background: Flow cytometry measures light scatter and fluorescence of single cells or particles in a stream.

In data set [2] the target is Toll-like receptor 1/2 (Homo sapiens) (UniProt O60603+Q15399). As to the kind of experiment: Agonist activity at TLR1/TLR2 in human THP-1 cells assessed as induction of TLR1/TLR2 dimerization at 20 uM incubated for 12 hrs by coimmunoprecipitation method. To be noted: filed as agonist. It counts as cell-based.
Data set [3] deals with PBMC. As to the kind of experiment: Induction of IL-1beta secretion in human PBMC incubated for 24 hrs by ELISA method. It counts as functional, cell-based. To be noted: dose 0.01-10 µM. For orientation: In an ELISA, binding on a coated surface is turned into a signal by an enzyme label.
A short description of data set [4]: Cytotoxicity against human PBMC upto 100 uM incubated for 24 hrs by CCK-8 assay. It counts as toxicity, cell-based. For orientation: Tetrazolium assays rely on reduction of a dye to a coloured formazan, in cell work by metabolically active cells.
For data set [5], the system named is THP-1. Put plainly: Induction of TNFalpha secretion in TLR2 knock down human THP-1 cells at 20 to 40 uM incubated for 24 hrs by ELISA method. It counts as functional, cell-based. The conditions noted are these: dose 20-40 µM.
The target of data set [6] is Toll-like receptor 1 (Homo sapiens) (UniProt Q15399). Put plainly: Agonist activity at TLR1 in HEK-Blue hTLR2 cells at 0.2 uM incubated for 24 hrs in presence of anti-hTLR1-IgG antibodies measured by Quanti-Blue based SEAP assay. It counts as cell-based. The conditions noted are these: filed as agonist.
The test system of data set [7] is PBMC. As to the kind of experiment: Induction of TNFalpha secretion in human PBMC incubated for 24 hrs by ELISA method. It counts as functional, cell-based. The conditions noted are these: dose 0.01-10 µM.
The next data set deals with Toll-like receptor 2 (Homo sapiens, UniProt O60603). As to the kind of experiment: Agonist activity at TLR2 in HEK-Blue cells incubated for 24 hrs by Quanti-Blue based SEAP assay. It counts as cell-based. The conditions noted are these: HEK-Blue hTLR2, filed as agonist.
The next data set has as its system Natural killer cell. As to the kind of experiment: Immunostimulatory activity in human NK cells assessed as fold increase at 0.1 to 10 uM incubated for 48 hrs by flow cytometry analysis. It counts as functional. The conditions noted are these: dose 0.1-10 µM.
Another data set has as its system Monocyte. Put plainly: Immunostimulatory activity in human monocytes assessed as fold increase at 0.1 to 10 uM incubated for 48 hrs by flow cytometry analysis. To be noted: dose 0.1-10 µM. It counts as functional.
Another data set concerns MCF7. As to the kind of experiment: Induction of apoptosis in human MCF7 cells cocultured with PMA-differentiated THP-1 cells assessed as early apoptotic cells at 10 uM measured after 24 hrs by annexin V-FITC/PI staining based flow cytometry (reference value: 7.87 %). It counts as functional.
Another data set concerns RAW264.7. Put plainly: Induction of nitric oxide release in mouse RAW264.7 cells at 0.01 to 10 uM incubated for 24 hrs by Griess reagent based assay. It counts as functional, cell-based. To be noted: dose 0.01-10 µM.
Data set [8] in a line: Cytotoxicity against HEK-Blue TLR2 cells incubated for 24 hrs by CCK-8 assay. It counts as toxicity, cell-based, HEK-Blue hTLR2. To be noted: human.
Data set [9] deals with THP-1. As to the kind of experiment: Agonist activity at TLR2/MyD88 in human THP-1 cells assessed as induction of TLR2/MyD88 complex formation at 20 uM incubated for 12 hrs by coimmunoprecipitation method. To be noted: filed as agonist. It counts as cell-based.
Another data set has as its system B-cell line. As to the kind of experiment: Immunostimulatory activity in mouse C57 spleen B cells in assessed as fold increase at 0.1 to 10 uM incubated for 48 hrs by flow cytometry analysis. It counts as functional, cell-based. The conditions noted are these: dose 0.1-10 µM.
For data set [10], the system named is HCT-116. As to the kind of experiment: Induction of apoptosis in human HCT-116 cells upto 100 uM by microplate reader analysis. It counts as functional, cell-based. The conditions noted are these: dose microM <=100.
The next data set concerns Macrophage. As to the kind of experiment: Induction of TNFalpha secretion in wild-type C57BL/6 mouse peritoneal macrophages at 0.01 to 10 uM incubated for 24 hrs by ELISA method. It counts as functional, cell-based. To be noted: dose 0.01-10 µM.
For data set [11], the target named is Toll-like receptor 3 (Homo sapiens) (UniProt O15455). Put plainly: Agonist activity at TLR3 in HEK-Blue hTLR3 cells at 0.1 to 100 uM incubated for 24 hrs by Quanti-Blue based SEAP assay. It counts as cell-based. To be noted: dose 0.1-100 µM.
For data set [12], the system named is CD3-positive T cell. As to the kind of experiment: Immunostimulatory activity in mouse C57 spleen CD3+ T cells in assessed as fold increase at 0.1 to 10 uM incubated for 48 hrs by flow cytometry analysis. It counts as functional, cell-based. The conditions noted are these: dose 0.1-10 µM.
Data set [13] concerns the target Toll-like receptor 8 (Homo sapiens) (UniProt Q9NR97). Put plainly: Agonist activity at TLR8 in HEK-Blue hTLR8 cells at 0.1 to 100 uM incubated for 24 hrs by Quanti-Blue based SEAP assay. It counts as cell-based. The conditions noted are these: dose 0.1-100 µM.
For data set [14], the system named is CD3-positive T cell. Put plainly: Immunostimulatory activity in human CD3+ T cells at 0.1 to 10 uM incubated for 48 hrs by flow cytometry analysis. It counts as functional, cell-based. To be noted: dose 0.1-10 µM.
Data set [15] deals with THP-1. Put plainly: Upregulation of TLR6 expression in human THP-1 cells at 20 uM by immunoprecipitation method. It counts as functional, cell-based.

Sequence of Toll-like receptor 2 (O60603 whole entry): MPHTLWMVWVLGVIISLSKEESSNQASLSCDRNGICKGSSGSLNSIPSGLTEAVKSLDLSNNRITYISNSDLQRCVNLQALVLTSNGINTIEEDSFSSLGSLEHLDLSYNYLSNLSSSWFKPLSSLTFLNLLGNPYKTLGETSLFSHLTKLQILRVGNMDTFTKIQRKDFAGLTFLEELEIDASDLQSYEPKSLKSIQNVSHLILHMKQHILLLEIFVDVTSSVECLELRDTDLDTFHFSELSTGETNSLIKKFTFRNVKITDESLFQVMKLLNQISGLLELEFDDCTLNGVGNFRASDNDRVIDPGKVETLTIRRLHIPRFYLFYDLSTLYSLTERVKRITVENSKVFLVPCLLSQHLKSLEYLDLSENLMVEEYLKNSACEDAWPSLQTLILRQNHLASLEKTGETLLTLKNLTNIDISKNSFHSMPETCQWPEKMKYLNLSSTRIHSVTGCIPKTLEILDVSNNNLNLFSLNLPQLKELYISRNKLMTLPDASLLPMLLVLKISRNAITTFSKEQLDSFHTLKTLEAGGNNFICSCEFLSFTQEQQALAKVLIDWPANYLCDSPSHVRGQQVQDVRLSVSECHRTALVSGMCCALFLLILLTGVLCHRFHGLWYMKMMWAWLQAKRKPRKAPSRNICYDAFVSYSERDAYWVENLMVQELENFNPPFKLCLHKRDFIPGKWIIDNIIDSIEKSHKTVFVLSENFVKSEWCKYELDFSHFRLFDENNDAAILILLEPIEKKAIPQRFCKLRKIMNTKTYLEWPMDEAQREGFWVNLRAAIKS
Sequence of Toll-like receptor 8 (Homo sapiens) (Q9NR97 whole entry): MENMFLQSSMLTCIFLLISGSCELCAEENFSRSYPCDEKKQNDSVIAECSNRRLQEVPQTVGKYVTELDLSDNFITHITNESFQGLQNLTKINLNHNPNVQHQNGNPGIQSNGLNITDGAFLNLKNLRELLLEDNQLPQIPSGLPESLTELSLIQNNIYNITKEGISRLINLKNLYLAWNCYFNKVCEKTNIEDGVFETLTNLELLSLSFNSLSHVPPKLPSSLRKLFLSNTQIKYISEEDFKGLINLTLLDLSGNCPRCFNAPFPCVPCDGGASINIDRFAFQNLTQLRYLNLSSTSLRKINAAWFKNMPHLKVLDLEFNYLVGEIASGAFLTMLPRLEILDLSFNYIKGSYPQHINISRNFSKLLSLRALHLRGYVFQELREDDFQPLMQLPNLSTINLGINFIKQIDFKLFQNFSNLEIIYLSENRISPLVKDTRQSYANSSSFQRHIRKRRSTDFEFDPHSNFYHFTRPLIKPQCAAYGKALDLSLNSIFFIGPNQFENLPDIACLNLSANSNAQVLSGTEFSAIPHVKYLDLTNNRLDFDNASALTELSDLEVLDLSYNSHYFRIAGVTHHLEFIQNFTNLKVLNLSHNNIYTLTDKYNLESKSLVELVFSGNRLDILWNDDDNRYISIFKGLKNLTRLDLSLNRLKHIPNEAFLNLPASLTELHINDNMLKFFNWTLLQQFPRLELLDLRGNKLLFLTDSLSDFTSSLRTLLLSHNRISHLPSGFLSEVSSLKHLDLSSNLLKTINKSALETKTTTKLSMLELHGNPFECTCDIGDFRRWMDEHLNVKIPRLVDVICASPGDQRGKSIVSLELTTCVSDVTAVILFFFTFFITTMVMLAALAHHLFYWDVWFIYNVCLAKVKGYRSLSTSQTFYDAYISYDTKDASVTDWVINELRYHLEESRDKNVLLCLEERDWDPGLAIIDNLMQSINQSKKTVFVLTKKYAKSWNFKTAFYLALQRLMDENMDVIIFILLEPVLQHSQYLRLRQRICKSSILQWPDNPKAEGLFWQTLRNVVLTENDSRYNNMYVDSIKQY
Sequence of Toll-like receptor 3 (Homo sapiens) (O15455 whole entry): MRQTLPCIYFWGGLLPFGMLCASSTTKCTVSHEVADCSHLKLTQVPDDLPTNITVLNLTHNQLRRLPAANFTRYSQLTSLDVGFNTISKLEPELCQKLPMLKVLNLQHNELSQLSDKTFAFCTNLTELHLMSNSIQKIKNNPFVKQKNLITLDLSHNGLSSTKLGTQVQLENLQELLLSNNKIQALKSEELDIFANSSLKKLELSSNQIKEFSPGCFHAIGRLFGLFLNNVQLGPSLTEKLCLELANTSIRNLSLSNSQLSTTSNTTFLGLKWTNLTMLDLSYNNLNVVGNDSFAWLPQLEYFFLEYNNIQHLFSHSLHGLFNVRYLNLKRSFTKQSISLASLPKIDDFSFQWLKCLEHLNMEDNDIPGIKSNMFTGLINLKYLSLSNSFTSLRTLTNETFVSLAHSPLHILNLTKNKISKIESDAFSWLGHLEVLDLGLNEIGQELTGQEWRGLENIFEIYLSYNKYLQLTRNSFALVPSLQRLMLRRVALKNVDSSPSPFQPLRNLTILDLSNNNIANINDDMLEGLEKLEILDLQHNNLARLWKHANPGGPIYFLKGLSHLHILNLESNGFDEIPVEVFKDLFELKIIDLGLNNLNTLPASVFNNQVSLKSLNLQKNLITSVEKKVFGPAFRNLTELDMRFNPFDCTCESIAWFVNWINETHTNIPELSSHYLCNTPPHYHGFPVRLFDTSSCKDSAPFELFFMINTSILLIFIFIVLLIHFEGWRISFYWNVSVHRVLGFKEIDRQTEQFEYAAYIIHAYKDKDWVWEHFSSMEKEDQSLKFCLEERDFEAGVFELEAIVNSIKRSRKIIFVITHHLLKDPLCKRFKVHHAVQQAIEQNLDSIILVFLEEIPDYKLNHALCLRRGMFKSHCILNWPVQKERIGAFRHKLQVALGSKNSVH
Sequence of Toll-like receptor 1 (Homo sapiens) (Q15399 whole entry): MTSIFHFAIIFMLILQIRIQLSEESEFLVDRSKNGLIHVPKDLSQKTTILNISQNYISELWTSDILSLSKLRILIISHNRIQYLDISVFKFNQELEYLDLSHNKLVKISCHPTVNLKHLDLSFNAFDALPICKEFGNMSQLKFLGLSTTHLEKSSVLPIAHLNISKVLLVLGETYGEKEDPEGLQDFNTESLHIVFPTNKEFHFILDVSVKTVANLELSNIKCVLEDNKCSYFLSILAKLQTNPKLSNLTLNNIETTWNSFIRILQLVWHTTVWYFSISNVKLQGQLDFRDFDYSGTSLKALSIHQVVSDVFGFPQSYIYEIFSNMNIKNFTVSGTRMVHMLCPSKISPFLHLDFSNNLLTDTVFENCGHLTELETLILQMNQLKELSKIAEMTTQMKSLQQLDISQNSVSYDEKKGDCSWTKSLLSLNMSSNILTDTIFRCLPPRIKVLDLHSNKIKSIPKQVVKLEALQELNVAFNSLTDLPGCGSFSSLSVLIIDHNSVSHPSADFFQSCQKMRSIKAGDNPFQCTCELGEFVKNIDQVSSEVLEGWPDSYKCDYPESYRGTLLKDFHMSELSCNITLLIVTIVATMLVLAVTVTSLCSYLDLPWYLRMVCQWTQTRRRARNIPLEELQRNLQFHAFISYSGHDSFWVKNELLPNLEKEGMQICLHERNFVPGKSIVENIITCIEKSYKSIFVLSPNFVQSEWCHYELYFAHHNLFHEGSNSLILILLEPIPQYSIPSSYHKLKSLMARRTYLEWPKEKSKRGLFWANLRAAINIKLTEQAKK

In general, CC50 refers to the concentration giving 50% cytotoxicity. Read a high CC50 as better tolerance by the cells. With `CC(C)OC(=O)c1c(NC(=S)Nc2ccc(F)c3ccccc23)sc2c1CCC2`, the Activity is 11.5% in the data set with HCT-116 [1]; “Dose-Dependent Effect” in the data set on PBMC [3]; “Non-Toxic” in [4]; “Dose-Dependent Effect” in the data set on PBMC [7]; “Dose-Dependent Effect” on Toll-like receptor 2; 16.4% in the data set on MCF7. The outcome (in data set [2]; in data set [6]; in the data set on THP-1 [9]; with CD3-positive T cell [14]) was Active. Further, the result (in the data set with THP-1 [5]; with RAW264.7; in the data set with B-cell line; in the data set with HCT-116 [10]; in the data set on Macrophage; in [11]) was inactive. Further, the result (with CD3-positive T cell [12]; in [13]; with THP-1 [15]) was inactive. The “fold change (FC)” value in the data set with Natural killer cell and in the data set with Monocyte was 2 each time. The same compound yielded a CC50 at 24 h in [8] greater than 100 µM.
